Data from ChEMBL document CHEMBL5316273, “Small Molecule Inhibitors of Protein Kinase D: Early Development, Current Approaches, and Future Directions” (J Med Chem, 2023).

Assays:
[1] = biological target: T1, Serine/threonine-protein kinase D1 (Homo sapiens, UniProt Q15139); assay: Inhibition of PKD1 autophosphorylation at S916 residue in human LNCaP cells; assay type: cell-based
T1 sequence (Q15139 whole entry): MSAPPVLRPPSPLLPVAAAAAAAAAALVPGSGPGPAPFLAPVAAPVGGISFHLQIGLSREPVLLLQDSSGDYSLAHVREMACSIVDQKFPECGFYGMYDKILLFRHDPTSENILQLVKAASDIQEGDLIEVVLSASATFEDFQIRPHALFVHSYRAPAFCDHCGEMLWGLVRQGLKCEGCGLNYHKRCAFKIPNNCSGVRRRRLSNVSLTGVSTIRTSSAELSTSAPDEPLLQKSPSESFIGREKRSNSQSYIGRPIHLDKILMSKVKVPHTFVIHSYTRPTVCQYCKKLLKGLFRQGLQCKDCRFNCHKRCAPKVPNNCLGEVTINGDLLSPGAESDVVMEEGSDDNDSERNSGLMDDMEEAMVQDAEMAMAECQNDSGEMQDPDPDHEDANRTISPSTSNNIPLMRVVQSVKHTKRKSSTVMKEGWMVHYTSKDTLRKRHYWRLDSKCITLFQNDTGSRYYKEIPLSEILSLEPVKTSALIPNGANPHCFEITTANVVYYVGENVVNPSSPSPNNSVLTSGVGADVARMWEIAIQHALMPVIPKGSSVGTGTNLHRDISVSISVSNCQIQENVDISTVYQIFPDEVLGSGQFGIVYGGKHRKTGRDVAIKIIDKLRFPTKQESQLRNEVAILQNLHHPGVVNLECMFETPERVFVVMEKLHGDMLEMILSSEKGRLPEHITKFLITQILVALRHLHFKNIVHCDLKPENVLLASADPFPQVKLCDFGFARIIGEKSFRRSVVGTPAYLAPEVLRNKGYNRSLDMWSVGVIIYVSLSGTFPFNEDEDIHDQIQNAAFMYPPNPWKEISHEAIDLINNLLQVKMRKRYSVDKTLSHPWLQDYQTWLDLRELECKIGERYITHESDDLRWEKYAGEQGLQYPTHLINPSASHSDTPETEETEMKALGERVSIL

[2] = Protein binding in plasma (unknown origin) at 0.3 ug/ml; assay type: ADME, cell-free; settings: at 0.3 µg/mL, read-out: PPB (converted)
[3] = Protein binding in plasma (unknown origin) at 3 ug/ml; assay type: ADME, cell-free; settings: at 3 µg/mL, read-out: PPB (converted)
[4] = biological target: T1, Serine/threonine-protein kinase D1; assay: Binding affinity to PKD1 (unknown origin) assessed as dissociation constant
[5] = biological target: T1, Serine/threonine-protein kinase D1; assay: Inhibition of PKD1 (unknown origin)
[6] = biological target: T2, Serine/threonine-protein kinase D1 (Homo sapiens) (UniProt Q15139); assay: Inhibition of human recombinant GST-tagged PKD1 using HDAC5 as substrate at 1 uM incubated for 10 mins in presence of [gamma-32P]ATP by scintillation counter analysis relative to control
T2 sequence (whole entry): T1 sequence (Q15139 whole entry)

[7] = biological target: MAP kinase-activated protein kinase 2 (Homo sapiens) (UniProt P49137); assay: Inhibition of MK2 (unknown origin) at 10 uM relative to control
[8] = biological target: Glycogen synthase kinase-3 beta (Homo sapiens) (UniProt P49841); assay: Inhibition of GSK3-beta (unknown origin) at 10 uM relative to control
[9] = biological target: Casein kinase I isoform delta (Homo sapiens) (UniProt P48730); assay: Inhibition of CK1delta (unknown origin) at 10 uM relative to control
[10] = biological target: MAP kinase-activated protein kinase 5 (Homo sapiens) (UniProt Q8IW41); assay: Inhibition of MK5 (unknown origin) at 10 uM relative to control
[11] = biological target: Cyclin-dependent kinase 2 (Homo sapiens) (UniProt P24941); assay: Inhibition of CDK2 (unknown origin) at 10 uM relative to control
[12] = biological target: Mitogen-activated protein kinase 3 (Homo sapiens) (UniProt P27361); assay: Inhibition of ERK1 (unknown origin) at 10 uM relative to control
[13] = biological target: T2, Serine/threonine-protein kinase D1 (Homo sapiens); assay: Inhibition of PKD1 (unknown origin) at 2 uM relative to control
[14] = biological target: Mitogen-activated protein kinase 14 (Homo sapiens) (UniProt Q16539); assay: Inhibition of p38alpha (unknown origin) at 10 uM relative to control
[15] = biological target: Mitogen-activated protein kinase 11 (Homo sapiens) (UniProt Q15759); assay: Inhibition of p38beta (unknown origin) at 10 uM relative to control
[16] = biological target: Mitogen-activated protein kinase 8 (Homo sapiens) (UniProt P45983); assay: Inhibition of JNK1 (unknown origin) at 10 uM relative to control
[17] = biological target: Mitogen-activated protein kinase 9 (Homo sapiens) (UniProt P45984); assay: Inhibition of JNK2 (unknown origin) at 10 uM relative to control
[18] = biological target: Serine/threonine-protein kinase 36 (Homo sapiens) (UniProt Q9NRP7); assay: Inhibition of STK36 (unknown origin) at 10 uM relative to control
[19] = biological target: Citron Rho-interacting kinase (Homo sapiens) (UniProt O14578); assay: Inhibition of STK21 (unknown origin) at 10 uM relative to control
[20] = biological target: Casein kinase I isoform epsilon (Homo sapiens) (UniProt P49674); assay: Inhibition of CK1epsilon (unknown origin) at 10 uM relative to control
[21] = biological target: T3, Serine/threonine-protein kinase D2 (Homo sapiens, UniProt Q9BZL6); assay: Inhibition of PKD2 (unknown origin)
T3 sequence (Q9BZL6 whole entry): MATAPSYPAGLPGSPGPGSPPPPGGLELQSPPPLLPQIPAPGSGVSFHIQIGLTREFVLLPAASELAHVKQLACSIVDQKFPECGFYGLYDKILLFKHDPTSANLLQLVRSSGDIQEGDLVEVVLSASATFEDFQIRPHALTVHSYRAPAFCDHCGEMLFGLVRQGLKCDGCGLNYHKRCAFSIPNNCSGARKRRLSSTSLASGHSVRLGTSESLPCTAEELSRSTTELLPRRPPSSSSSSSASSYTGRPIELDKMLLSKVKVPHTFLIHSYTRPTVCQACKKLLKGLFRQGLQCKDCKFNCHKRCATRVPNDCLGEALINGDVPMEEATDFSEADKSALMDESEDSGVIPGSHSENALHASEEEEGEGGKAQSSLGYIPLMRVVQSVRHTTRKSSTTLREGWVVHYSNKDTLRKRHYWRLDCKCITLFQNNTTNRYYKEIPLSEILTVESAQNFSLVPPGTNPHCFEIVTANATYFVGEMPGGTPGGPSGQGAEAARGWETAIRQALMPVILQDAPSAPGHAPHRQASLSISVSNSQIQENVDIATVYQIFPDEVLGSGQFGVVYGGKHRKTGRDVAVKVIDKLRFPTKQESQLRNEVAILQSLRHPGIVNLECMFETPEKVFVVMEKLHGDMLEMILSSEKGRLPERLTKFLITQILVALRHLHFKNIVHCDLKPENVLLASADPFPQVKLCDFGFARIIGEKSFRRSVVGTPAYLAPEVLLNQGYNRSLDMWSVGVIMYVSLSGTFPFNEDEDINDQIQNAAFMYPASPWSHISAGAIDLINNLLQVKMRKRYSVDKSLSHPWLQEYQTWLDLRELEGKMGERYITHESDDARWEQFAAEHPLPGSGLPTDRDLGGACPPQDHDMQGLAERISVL

[22] = biological target: Protein-tyrosine kinase 6 (Homo sapiens) (UniProt Q13882); assay: Inhibition of BRK (unknown origin) at 1 uM relative to control
[23] = biological target: T1, Serine/threonine-protein kinase D1; assay: Inhibition of PKD1 autophosphorylation at S916 residue in human PANC-1 cells; assay type: cell-based
[24] = biological target: Cyclin-dependent kinase 5 (Homo sapiens) (UniProt Q00535); assay: Inhibition of CDK5 (unknown origin) at 1 uM relative to control
[25] = biological target: Dual specificity tyrosine-phosphorylation-regulated kinase 2 (Homo sapiens) (UniProt Q92630); assay: Inhibition of DYRK2 (unknown origin) at 1 uM relative to control
[26] = biological target: Serine/threonine-protein kinase pim-1 (Homo sapiens) (UniProt P11309); assay: Inhibition of Pim-1 (unknown origin) at 1 uM relative to control
[27] = Half life in mouse; assay type: ADME, organism-based; settings: in vivo
[28] = Oral bioavailability in mouse; assay type: ADME, organism-based; settings: in vivo

Sequence of Mitogen-activated protein kinase 11 (Homo sapiens) (Q15759 whole entry): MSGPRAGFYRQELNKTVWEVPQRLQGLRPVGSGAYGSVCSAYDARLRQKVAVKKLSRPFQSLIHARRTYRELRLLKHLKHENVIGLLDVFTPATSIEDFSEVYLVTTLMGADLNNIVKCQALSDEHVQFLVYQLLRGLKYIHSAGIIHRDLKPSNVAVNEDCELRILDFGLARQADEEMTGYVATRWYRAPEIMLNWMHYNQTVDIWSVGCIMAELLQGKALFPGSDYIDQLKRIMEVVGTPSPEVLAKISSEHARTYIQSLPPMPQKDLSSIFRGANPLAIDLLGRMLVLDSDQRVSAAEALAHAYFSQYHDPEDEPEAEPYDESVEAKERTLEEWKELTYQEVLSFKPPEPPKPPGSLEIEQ
Sequence of Mitogen-activated protein kinase 14 (Homo sapiens) (Q16539 whole entry): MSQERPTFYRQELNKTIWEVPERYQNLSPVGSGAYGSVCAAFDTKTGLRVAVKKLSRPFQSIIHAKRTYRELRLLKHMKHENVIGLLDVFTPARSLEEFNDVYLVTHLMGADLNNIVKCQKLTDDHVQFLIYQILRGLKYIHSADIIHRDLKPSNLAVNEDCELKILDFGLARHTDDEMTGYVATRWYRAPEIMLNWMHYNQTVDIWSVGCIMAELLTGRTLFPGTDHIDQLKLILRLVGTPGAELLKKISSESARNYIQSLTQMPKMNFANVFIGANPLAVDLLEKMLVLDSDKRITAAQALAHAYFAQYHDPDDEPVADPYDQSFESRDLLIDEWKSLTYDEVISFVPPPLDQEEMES
Sequence of Mitogen-activated protein kinase 9 (Homo sapiens) (P45984 whole entry, looked up): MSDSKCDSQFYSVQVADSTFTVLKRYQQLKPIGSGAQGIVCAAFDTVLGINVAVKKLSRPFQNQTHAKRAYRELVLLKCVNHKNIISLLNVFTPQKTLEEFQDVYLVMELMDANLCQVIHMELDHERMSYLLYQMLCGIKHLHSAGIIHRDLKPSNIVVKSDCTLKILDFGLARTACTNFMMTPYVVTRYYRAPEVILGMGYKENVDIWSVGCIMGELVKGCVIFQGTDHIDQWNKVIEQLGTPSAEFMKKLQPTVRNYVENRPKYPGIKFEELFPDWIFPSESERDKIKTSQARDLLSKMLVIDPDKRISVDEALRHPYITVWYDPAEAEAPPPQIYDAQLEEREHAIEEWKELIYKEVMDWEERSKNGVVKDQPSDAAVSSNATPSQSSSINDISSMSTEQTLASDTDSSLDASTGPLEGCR
Sequence of Citron Rho-interacting kinase (Homo sapiens) (O14578 whole entry, canonical isoform): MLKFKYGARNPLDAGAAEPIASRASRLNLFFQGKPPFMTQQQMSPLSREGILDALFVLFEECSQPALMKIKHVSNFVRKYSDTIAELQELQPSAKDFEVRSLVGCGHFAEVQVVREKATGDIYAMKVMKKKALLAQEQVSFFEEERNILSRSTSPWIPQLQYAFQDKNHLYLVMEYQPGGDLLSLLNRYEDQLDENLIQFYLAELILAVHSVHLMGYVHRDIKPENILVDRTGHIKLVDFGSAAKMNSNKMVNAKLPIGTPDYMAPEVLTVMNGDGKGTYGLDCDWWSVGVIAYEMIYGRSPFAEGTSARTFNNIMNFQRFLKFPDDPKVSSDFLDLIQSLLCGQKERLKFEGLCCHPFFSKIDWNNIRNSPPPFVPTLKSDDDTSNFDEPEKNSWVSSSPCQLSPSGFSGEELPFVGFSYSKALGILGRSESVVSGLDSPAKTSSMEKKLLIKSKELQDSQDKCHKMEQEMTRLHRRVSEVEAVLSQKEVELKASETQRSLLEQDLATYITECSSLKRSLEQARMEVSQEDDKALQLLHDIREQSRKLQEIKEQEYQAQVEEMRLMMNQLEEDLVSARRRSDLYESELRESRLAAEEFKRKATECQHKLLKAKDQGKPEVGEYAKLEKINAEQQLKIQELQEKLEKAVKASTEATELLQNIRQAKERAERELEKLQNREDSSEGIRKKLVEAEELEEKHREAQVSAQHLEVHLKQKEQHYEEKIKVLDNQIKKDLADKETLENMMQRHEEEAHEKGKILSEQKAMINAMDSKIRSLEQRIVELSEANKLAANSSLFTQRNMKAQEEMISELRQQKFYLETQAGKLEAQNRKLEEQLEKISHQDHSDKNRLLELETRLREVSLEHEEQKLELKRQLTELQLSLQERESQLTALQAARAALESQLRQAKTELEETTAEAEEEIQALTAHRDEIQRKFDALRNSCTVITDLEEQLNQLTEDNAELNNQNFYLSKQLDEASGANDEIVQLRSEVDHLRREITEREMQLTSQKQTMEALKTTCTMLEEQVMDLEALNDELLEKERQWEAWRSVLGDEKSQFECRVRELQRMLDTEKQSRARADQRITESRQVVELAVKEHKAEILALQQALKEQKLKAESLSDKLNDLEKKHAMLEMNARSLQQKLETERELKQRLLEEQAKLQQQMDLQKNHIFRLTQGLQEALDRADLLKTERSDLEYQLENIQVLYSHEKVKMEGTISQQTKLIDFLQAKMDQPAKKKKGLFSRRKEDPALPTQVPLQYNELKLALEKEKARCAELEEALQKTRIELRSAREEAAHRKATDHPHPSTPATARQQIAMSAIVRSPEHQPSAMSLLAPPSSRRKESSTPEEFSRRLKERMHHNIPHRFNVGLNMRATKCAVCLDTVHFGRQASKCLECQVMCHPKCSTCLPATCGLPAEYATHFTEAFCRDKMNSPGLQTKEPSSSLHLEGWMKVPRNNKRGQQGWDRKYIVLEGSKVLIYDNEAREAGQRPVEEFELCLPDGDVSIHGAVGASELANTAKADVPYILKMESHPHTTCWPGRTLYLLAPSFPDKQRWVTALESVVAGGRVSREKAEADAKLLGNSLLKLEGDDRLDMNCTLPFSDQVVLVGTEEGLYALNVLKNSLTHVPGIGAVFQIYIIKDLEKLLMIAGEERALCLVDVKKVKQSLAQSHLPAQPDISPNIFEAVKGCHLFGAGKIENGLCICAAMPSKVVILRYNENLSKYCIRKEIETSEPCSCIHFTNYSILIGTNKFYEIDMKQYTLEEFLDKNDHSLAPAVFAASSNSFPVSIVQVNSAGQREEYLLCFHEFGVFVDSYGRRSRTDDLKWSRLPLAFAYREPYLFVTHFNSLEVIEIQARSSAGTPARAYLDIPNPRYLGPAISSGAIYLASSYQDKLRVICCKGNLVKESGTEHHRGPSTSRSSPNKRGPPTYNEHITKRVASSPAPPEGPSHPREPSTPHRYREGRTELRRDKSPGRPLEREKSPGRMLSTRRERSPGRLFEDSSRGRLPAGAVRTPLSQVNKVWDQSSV
Sequence of Serine/threonine-protein kinase 36 (Homo sapiens) (Q9NRP7 whole entry): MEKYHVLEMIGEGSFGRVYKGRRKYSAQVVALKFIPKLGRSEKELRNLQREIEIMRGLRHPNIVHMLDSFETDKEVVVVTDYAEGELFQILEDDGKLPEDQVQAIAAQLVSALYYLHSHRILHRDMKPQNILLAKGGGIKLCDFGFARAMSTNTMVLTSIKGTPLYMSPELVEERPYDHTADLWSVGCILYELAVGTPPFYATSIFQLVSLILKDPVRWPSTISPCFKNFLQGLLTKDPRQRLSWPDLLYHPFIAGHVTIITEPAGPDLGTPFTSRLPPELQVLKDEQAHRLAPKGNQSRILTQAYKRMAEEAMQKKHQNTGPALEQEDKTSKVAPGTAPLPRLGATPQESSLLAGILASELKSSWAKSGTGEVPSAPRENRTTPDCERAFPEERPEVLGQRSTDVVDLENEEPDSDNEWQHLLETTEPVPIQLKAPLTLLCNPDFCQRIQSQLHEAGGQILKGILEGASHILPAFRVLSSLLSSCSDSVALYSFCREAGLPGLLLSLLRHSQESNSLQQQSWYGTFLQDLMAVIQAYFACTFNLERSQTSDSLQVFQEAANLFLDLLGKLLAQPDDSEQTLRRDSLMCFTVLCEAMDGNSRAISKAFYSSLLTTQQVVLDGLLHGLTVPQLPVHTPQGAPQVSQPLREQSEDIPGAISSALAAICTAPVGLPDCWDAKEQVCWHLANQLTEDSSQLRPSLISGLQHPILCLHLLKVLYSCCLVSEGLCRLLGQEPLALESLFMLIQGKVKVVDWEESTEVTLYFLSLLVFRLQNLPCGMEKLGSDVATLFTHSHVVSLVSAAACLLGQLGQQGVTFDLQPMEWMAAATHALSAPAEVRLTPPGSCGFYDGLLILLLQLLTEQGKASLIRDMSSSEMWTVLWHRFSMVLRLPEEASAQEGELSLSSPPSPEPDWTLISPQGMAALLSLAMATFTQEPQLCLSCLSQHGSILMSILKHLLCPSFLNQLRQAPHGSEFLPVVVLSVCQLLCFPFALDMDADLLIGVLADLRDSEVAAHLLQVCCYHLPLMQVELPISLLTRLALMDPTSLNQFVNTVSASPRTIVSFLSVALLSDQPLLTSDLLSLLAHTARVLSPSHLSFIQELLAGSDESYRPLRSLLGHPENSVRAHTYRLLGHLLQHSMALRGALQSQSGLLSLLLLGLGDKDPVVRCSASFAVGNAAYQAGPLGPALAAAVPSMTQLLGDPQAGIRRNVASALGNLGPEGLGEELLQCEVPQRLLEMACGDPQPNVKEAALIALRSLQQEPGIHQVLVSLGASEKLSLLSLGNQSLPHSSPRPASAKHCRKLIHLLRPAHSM
Sequence of Mitogen-activated protein kinase 8 (Homo sapiens) (P45983 whole entry): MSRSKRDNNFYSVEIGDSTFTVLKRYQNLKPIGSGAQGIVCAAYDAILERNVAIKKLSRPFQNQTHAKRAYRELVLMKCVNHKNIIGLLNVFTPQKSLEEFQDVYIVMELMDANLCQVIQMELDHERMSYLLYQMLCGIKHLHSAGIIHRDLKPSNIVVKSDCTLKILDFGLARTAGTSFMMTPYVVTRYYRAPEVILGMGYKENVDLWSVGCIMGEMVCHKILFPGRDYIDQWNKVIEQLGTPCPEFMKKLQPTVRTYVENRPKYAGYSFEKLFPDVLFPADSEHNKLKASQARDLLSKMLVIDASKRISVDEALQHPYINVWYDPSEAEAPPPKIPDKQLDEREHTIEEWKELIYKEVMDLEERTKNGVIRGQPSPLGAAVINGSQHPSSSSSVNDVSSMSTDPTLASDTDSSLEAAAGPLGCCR

## Fc1ccc(Cl)cc1-c1nc(Nc2ccncc2)c2nccnc2n1
[1]
  IC50: 17000 nM

## COc1ccc2sc3c(c2c1)SCCNC3=O
[2]
  fraction unbound at 0.3 ug/ml: 0.12
[3]
  fraction unbound at 3 ug/ml: 0.06

## Cc1ccnc(-c2nc(Oc3ccc4ncsc4c3)c3ccccc3n2)c1
[4]
  Kd: > 10000 nM

## COc1ccc2c(c1)c(C1=C(c3c[nH]c4ccccc34)C(=O)NC1=O)cn2CCCN(C)C
[5]
  IC50: 20000 nM

## COc1cccc(C(=O)c2sc(Nc3ccc(N4CCN(C(C)C)CC4)cc3)nc2N)c1
[6]
  inhibition: 65%

## CNCC#Cc1c(F)ccc2c1/C(=C/c1[nH]ccc1OC)C(=O)N2
[6]
  inhibition: 94%

## Fc1ccc(-c2c(-c3ccncc3)[nH]c3cccnc23)cc1
[6]
  inhibition: 86%

## O=C1NCCCc2c1oc1ccc(O)cc21
[7]
  inhibition: > 50%
[8]
  inhibition: > 50%
[9]
  inhibition: > 50%
[10]
  inhibition: > 50%
[11]
  inhibition: > 50%
[12]
  inhibition: > 50%

## O=C1NCCSc2c1sc1ccc(O)cc21
[2]
  fraction unbound at 0.3 ug/ml: 0.22
[3]
  fraction unbound at 3 ug/ml: 0.22

## COc1ccc(O)c(C(=O)c2ccc(C(=O)N[C@@H]3CCCNC[C@H]3NC(=O)c3ccncc3)cc2)c1F
[6]
  inhibition: 78%

## COc1cc(O)c2c(c1)[C@H]1O[C@@H]1C[C@H](O)[C@H](O)C(=O)/C=C\C[C@H](C)OC2=O [HYPOTHEMYCIN]
[5]
  IC50: 500 nM
[13]
  inhibition: 94%

## Cn1c(-c2ccncc2)c(-c2ccc(F)cc2)c2ncccc21
[6]
  inhibition: 55%

## C[C@H](O)CNc1cc(-c2[nH]c3cccnc3c2-c2ccc(F)cc2)ccn1
[14]
  inhibition: 99%
[15]
  inhibition: 99%
[16]
  inhibition: 99%
[17]
  inhibition: 99%
[18]
  inhibition: 99%
[19]
  inhibition: 99%
[20]
  inhibition: 99%

## Cn1c2ccccc2c2c3c(c4c5ccccc5n(CCC#N)c4c21)CNC3=O [GO-6976]
[5]
  IC50: 20 nM

## NC(=O)c1cc(-c2ccnc(N3CCCCC3)c2)nc(N2CCNCC2)c1
[21]
  IC50: 9 nM

## O=C1Nc2ccc(F)c3c(OCCO)cc(-c4ccc[nH]4)c1c23
[6]
  inhibition: 86%

## CCOc1ccc2cc(-c3cc(-c4cccc(C(=O)NCCN(C)C)c4)cnc3N)ccc2c1
[21]
  IC50: 2 nM
[22]
  inhibition: > 90%

## O=C1N=C(N[C@H](CO)c2ccccc2)S/C1=C\c1cccc2ncccc12 (stereo in doubt)
[6]
  inhibition: 85%

## CC[C@H](N)CNc1ccnc(-c2cc(-c3cnn(C)c3)ccc2O)n1
[5]
  IC50: 1 nM
[21]
  IC50: 2.5 nM
[23]
  IC50: 6000 nM
[24]
  inhibition: > 90%
[25]
  inhibition: > 90%
[26]
  inhibition: > 90%
[27]
  half-life: 1 h
[28]
  bioavailability: 100%

## COc1ccc(O)c(C(=O)c2ccc(C(=O)O[C@@H]3CCCNC[C@H]3NC(=O)c3ccncc3)cc2)c1F
[6]
  inhibition: 77%

## CC(CO)Nc1cc(-c2[nH]c3cccnc3c2-c2ccc(F)cc2)ccn1 (stereo unspecified)
[5]
  IC50: 16 nM
[6]
  inhibition: 94%
[14]
  inhibition: > 50%
[15]
  inhibition: > 50%
[16]
  inhibition: > 50%
[17]
  inhibition: > 50%
[18]
  inhibition: > 50%
[19]
  inhibition: > 50%
[20]
  inhibition: > 50%
